Patent US20050282745A1, “Non-mammalian GnRH analogs and uses thereof in regulation of fertility and pregnancy” (priority 2001, published 2005)
Read-outs that look alike come from different tables or passages of the source. Non-standard residues stand in square brackets, D forms with d. Residues, ends and D or L forms follow the SMILES beside them. pGlu = O=C1CC[C@@H](C(=O)O)N1; azaGly = NNC(=O)O

How the values were obtained:
[1] = system: human placental GnRH receptor; experiment: Placental GnRH receptor binding, radiolabeled D-Arg(6)-chicken II GnRH-aza-Gly(10)-amide label
Experimental: The newly synthesized non-mammalian GnRH analogs and other commercially available mammalian GnRH analogs were used in placental receptors binding and enzyme stability study described here. On the basis of these studies, the most receptor potent and enzyme-stable analogs were chosen for further biopotency studies. GnRH receptors were purified from the membrane fractions from placentas. The purification procedure for the placental GnRH receptor was performed using a modification of the method described by Bramley et al., which reference is specifically incorporated herein by reference for the purpose. Addition of enzyme inhibitors for the endogenous C-ase-1 were used as well as agents for receptor stabilization. Initially, receptor-binding assays using ^125I-Buserelin as label were performed. The competitive binding of each of the analogs was studied over a dose range of 10^−11 to 10^−6 M. Incubation was at room temperature and receptor bound label was precipitated with polyethylene glycol. Specific and non-specific binding was determined. The data was subjected to Scatchard analysis. The non-mammalian GnRH analogs' ability to bind to the placental GnRH receptor was compared to that for synthetic mammalian GnRH (SEQ ID NO: 5), Buserelin (SEQ ID NO: 10) and other mammalian analogs. […] This way, the receptor affinity for that analog could be precisely determined. Receptors from three different term placentas were used to study each of these analogs. […] Bramley T A, McPhie C A, Menzies G S 1994 Human placental gonadotropin-releasing hormone (GnRH) binding sites: 111. Changes in GnRH binding levels with stage of gestation. Placenta 15:733-745.
In these and additional studies, placental GnRH receptors were purified from human term placentas after homogenization in 40 mM Tris (pH 7.4) and filtered through cheesecloth, followed by an initial centrifugation at 1,000×g for 10 minutes. The resulting supernatant was, again, centrifuged at 35,000×g for 30 minutes and the membrane pellet was collected and resuspended in Tris buffer with 0.3 M sucrose. The protein concentration was determined. Membranes were stored frozen at −20 C until use. Before use, placental membranes were diluted to 5,000 μg/mL with Tris buffer containing 0.5% BSA and 50 U/mL bacitracin. Placental membranes (100 μL) were used with varying concentrations of mammalian GnRH (SEQ ID NO: 5), Buserelin (SEQ ID NO: 10), chicken II GnRH (SEQ ID NO: 6), D-Arg (6)-chicken II GnRH-des-Gly (10)-ethylamide (SEQ ID NO: 2), or D-Arg (6)-chicken II GnRH-aza-Gly (10)-amide (SEQ ID NO: 2) (100 μL) and either radiolabeled Buserelin (SEQ ID NO: 10) or radiolabeled D-Arg (6)-chicken II GnRH-aza-Gly (10)-amide (SEQ ID NO: 2) (100 μL/tube and iodinated). Following incubation at room temperature for 4 hours, the bound and free hormones were separated using polyethylene glycol precipitation, followed by centrifugation. The binding affinity for each GnRH isoform or analog was calculated using the double reciprocal plot of bound versus free ligand. Each study was done using three different human term placental tissues.

[2] = target: baboon ovary GnRH receptor; experiment: Baboon ovary membrane GnRH receptor binding; settings: baboon ovary membranes; read-out: GnRH receptor affinity
Experimental: The receptor binding activity of newly synthesized non-mammalian GnRH analogs was studied in ovarian and uterine tissues. […] The ovaries of the three baboons were extracted and the cytosolic and membrane fractions were recovered for the tissues. The membrane fraction from one animal was titred for GnRH receptor binding activity using D-Arg(6)-chicken II GnRH-aza-Gly(10)-amide radiolabeled ligand. Receptors were clearly demonstrable even at 4 μg membrane protein/tube. […] The chicken II GnRH analog (SEQ ID NO: 2) had the highest affinity for any GnRH analog reported to date.

[3] = target: baboon endometrium (stroma and epithelium) receptor; experiment: Baboon endometrium receptor binding; settings: read-out: receptor affinity
Description: Due to the limited number of cells it was not possible to precisely define the affinity of this receptor.

[4] = system: baboon uterine tissue GnRH receptor; experiment: Baboon uterine tissue GnRH receptor binding
Description: These chicken II GnRH analogs (SEQ ID NO: 2) may have particular applicability for regulation of implantation and in uterine tissue conditions, such as endometriosis, abnormal uterine bleeding, and leiomyomas. Thus, high affinity receptors for chicken II GnRH analogs (SEQ ID NO: 2) have been defined in baboon ovary and uterus tissues.

[5] = system: baboon granulosa cells; experiment: Baboon granulosa cell culture, progesterone release; format: cell-based
Description: The biopotency of chicken II GnRH analogs (SEQ ID NO: 2) in the regulation of baboon ovarian function was studied. The effect of mammalian and chicken II GnRH analogs (SEQ ID NO: 2) on ovarian progesterone release was studied using granulosa cell cultures. The dose-related action of a stable analog of chicken II GnRH (SEQ ID NO: 2) on progesterone production was defined using baboon granulosa cell cultures. After a two hour basal study period, the medium was supplemented with either Buserilin (SEQ ID NO: 10) (10^−7) or a chicken II GnRH analog (SEQ ID NO: 2) (10^−9, 10^−8, 10^−7, 10^−6 M) leaving four control wells. […] This inhibition was sustained after 48 hours of treatment. […] In addition, the action of the analog on three different stromal and three different epithelial endometrial primary cell lines (after 3-5 passages) has been studied and PGE2 determined as indicated in FIG. 31.

[6] = system: human sperm; experiment: Human sperm motility in vitro; format: cell-based
Experimental: Normal human sperm ([…]) were obtained with seminal plasma and the motility of the sperm was assessed microscopically. Both the fraction of motile sperm and the forward sperm motion were assessed. These parameters were measured just prior to a 1:5 dilution with phosphate buffered saline containing 0 to 200 nM chicken II GnRH analog (SEQ ID NO: 2). The motility and motion of the sperm were assessed at 2, 30, 60, 90, 120 and 180 minutes after incubation at 37 C. […] By 180 minutes the motility of the control had fallen to that of all the treated sperm.

[7] = system: chorionic peptidase-1 (C-ase-1)
Experimental: Using the incubation system developed for the C-ase-1 activity, the degradation of each analog was tested. […] These studies were done using the C-ase-1 enzyme activity assay as described previously. […] The product formed was calculated by subtraction, and its inverse plotted against the inverse of the original substrate concentrations to determine the nature of the competition. The Ki was to be determined by plotting the inverse of the product that formed verses the inhibitor used.
The concentration of the product of the degraded GnRH was quantified by subtracting the remaining mammalian GnRH from the starting concentrations of mammalian GnRH. […] The Ks for the degradation of mammalian GnRH was calculated from the x axis intercept using Lineweaver-Burke double reciprocal plot of the concentration of the product formed versus the concentration of the substrate used.
The reaction was stopped by heating at 85° C. for 10 minutes. The remaining GnRH was determined using a specific radioimmunoassay. The formation of product, i.e., the N-terminal nonapeptide of GnRH, was calculated by subtraction and its inverse was plotted versus the inverse of the initial substrate to determine the Ks of the reaction. […] The relative potency of each analog was compared.
Using the incubation system developed for the C-ase-1 activity, the degradation of each analog was studied. […] The inverse of the product was plotted against the inverse of the original substrate concentrations to determine Ks of the competition. The Ki was determined by plotting the inverse of the product formed verses the inhibitor used.

N=C(N)NCCC[C@@H](NC(=O)[C@H](Cc1c[nH]cn1)NC(=O)[C@H](CO)NC(=O)[C@H](Cc1c[nH]c2ccccc12)NC(=O)[C@H](Cc1c[nH]cn1)NC(=O)[C@@H]1CCC(=O)N1)C(=O)N[C@@H](Cc1c[nH]c2ccccc12)C(=O)N[C@@H](Cc1ccc(O)cc1)C(=O)N1CCC[C@H]1C(=O)NNC(N)=O [D-Arg(6)-chicken II GnRH-aza-Gly(10)-amide] ([pGlu]HWSH[dR]WYP[azaGly]-NH2)
binding affinity compared with mammalian GnRH ([1]; analog label): 25 fold
Kd ([1]; placenta 2 membrane preparation, read-out: affinity constant (Ks)): 0.068 µM
Kd ([1]; three placental membrane preparations, read-out: average binding affinity): 0.093 ± 0.023 µM
enhancement of affinity when the analog is used as label ([1]; versus Buserelin label): 2 fold
Kd [2]: 0.01 µM
Kd [3]: ~0.06 µM
binding affinity, in words [4]: high binding affinity
progesterone release, of untreated controls ([5]; 10^−8M, within 24 hours): 31%
effect on progesterone release, in words ([5]; chicken II analog 10^−9 to 10^−6 M, Buserelin 10^−7): dose-related inhibition of progesterone release
concentration of maximal inhibition of progesterone release ([5]; within 24 hours): 10^−8 M
forward motion of remaining motile sperm [6]: maintained a high grade
time until inhibition of motility ([6]; 2 nM): 30 min
sperm motility ([6]; 20 to 200 nM): initially inhibited
degradation by / competition for C-ase-1, in words [7]: essentially not degraded
